PMC6694100, “The complex of ferric-enterobactin with its transporter from Pseudomonas aeruginosa suggests a two-site model” (Nature Communications, 2019)
Where “and” joins values, the source holds several entries; their conditions need not be identical. Identical values can stand only once. Entries after “also recorded” stand apart in the source; their conditions may differ.

Key:
PfeA G324V mutant = target: T1, PfeA G324V mutant (Pseudomonas aeruginosa, UniProt Q05098, G349V); assay: isothermal titration calorimetry, PfeA G324V; format: binding
T1 construct: His7 tag with TEV protease site (N, cleaved yes); made in house; host or cells: E. coli C43 (DE3)
T1 sequence (Q05098 26-746 G349V): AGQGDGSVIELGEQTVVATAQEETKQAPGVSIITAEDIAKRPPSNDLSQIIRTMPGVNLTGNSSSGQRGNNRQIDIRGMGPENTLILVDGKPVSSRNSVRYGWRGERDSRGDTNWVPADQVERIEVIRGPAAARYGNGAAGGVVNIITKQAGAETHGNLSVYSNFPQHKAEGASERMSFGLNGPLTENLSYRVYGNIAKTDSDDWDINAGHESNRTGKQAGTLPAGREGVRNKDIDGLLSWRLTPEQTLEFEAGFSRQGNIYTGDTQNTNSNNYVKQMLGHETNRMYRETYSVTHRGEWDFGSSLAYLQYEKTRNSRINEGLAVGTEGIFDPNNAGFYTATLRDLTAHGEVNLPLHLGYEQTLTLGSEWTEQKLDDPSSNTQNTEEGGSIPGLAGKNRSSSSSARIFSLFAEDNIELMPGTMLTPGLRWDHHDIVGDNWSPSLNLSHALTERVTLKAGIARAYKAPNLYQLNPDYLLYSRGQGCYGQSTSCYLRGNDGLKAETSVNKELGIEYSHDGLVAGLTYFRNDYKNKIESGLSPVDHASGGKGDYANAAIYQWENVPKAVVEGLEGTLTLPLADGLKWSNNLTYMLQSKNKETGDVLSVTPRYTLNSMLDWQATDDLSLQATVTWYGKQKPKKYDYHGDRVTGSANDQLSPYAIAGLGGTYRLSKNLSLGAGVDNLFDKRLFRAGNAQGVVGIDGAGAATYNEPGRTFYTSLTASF
Protocol: (§1) The sites have different affinities for the ligand, one with high affinity and highly favourable enthalpy and the second with lower affinity and unfavourable enthalpy. Although the biphasic nature of the isotherm was reproducible, the numerical values varied. For K1, the binding constant was 20 to 100 nM; for K2 […]. […] The weaker binding at the […] site is consistent with the higher B-factor of the Fe^3+-enterobactin molecule observed in the complex crystal structures.
(§2) Affinities of PfeA wild-type and mutants for Fe^3+-enterobactin were measured by isothermal titration calorimetry using a VP-ITC instrument (GE Healthcare) at 25 °C. Titrations were performed using 57 × 5 μl injections of Fe^3+-enterobactin (70–55 μM) into 10 μM protein. The heats of dilution measured from injection of the ligands into the buffer were subtracted, and titration curves were fitted using AFFINImeter software with a two-site binding model. Concentrations of Fe^3+-enterobactin solutions were verified with UV/vis spectrophotometry using a published molar extinction coefficient of ε495 = 5600 M^−1 cm^−1. […] Reverse titration has been also performed (PfeA into Fe^3+-enterobactin), but data suffer from high heats of dilution in the beginning of the blank titration of PfeA into the buffer giving estimates of K1 = 95 nM and K2 = 4.5 μM for the wild-type.

PfeA Q482A mutant = target: T2, PfeA Q482A mutant (Pseudomonas aeruginosa, UniProt Q05098, Q507A); assay: isothermal titration calorimetry, PfeA Q482A; format: binding
T2 construct: His7 tag with TEV protease site (N, cleaved yes); made in house; host or cells: E. coli C43 (DE3)
T2 sequence (Q05098 26-746 Q507A): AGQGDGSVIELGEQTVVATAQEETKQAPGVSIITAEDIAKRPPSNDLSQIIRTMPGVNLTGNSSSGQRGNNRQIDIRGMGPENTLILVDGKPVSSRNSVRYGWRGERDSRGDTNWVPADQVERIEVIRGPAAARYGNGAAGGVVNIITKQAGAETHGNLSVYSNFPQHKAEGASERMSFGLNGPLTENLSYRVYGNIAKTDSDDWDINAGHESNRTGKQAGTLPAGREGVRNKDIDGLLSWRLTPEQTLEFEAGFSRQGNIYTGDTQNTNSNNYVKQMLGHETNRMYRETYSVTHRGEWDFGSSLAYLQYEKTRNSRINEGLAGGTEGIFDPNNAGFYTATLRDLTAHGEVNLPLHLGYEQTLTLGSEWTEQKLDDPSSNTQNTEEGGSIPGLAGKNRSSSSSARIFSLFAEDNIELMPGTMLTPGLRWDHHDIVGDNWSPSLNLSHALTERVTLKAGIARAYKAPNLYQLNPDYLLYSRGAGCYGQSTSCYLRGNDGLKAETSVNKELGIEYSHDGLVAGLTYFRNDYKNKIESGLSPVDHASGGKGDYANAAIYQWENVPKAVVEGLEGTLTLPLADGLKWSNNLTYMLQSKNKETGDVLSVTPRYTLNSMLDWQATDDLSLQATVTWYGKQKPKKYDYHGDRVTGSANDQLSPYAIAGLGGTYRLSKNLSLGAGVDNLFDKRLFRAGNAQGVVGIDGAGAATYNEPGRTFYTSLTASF
Protocol: as §1, §2

wild-type PAO1 strain = assay: 55Fe-enterobactin binding and uptake assay, PAO1; format: cell-based, Pseudomonas aeruginosa; conditions: replicates, Figure 6b-c, listed as 55Fe-enterobactin
Protocol: Fig. 6 Effects of PfeA mutation in vivo. a Analysis of changes in the transcription of pfeA gene. PAO1 strain, its corresponding deletion mutant ∆pfeA and deletion mutants carrying the expression plasmid of PfeA wild-type (∆pfeA(pMMBpfeA) or the R480A-Q482A mutant (∆pfeA(pMMBpfeAR480AQ482A)) were grown in CAA medium supplemented with 10 µM enterobactin. The data were normalised relative to the reference gene uvrD, and are representative of three independent experiments performed in triplicate (n = 3). The results are given as a ratio between the values obtained for ∆pfeA, ∆pfeA(pMMBpfeA) and ∆pfeA(pMMBpfeAR480AQ482A) over those obtained for the PAO1 strain. b ^55Fe-enterobactin binding at the bacterial surface. Cells were grown as in panel a, and were incubated for 15 min with 200 µM CCCP before initiation of transport assays by the addition of 500 nM ^55Fe-enterobactin. After 30 min incubation, the radioactivity accumulated in the bacteria was counted. The results are expressed as pmol of ^55Fe-enterobactin bound per ml of cells at an OD600 of 1. The experiments have been repeated three times. c ^55Fe-enterobactin binding and uptake. Cells were grown as in panel a, and were incubated with or without 200 µM CCCP before initiation of transport assays by the addition of 500 nM ^55Fe-enterobactin. After 30 min incubations, the radioactivity accumulated in the bacteria was counted. The results are expressed as pmol of ^55Fe-enterobactin bound and transported per ml of cells at an OD600 of 1. The experiments have been repeated three times
The complex was prepared at ^55Fe concentrations of 50 μM, with a siderophore:iron (mol:mol) ratio of 20:1. P. aeruginosa strains were first grown overnight at 30 °C in LB broth, and were then washed, resuspended and cultured overnight at 30 °C in iron-deficient CAA medium (casamino acid medium, composition: 5 g.l^−1 low-iron CAA (Difco), 1.46 g.l^−1 K2HPO4 3H2O, 0.25 g.l^−1 MgSO4 7H2O) and in the presence of 10 µM enterobactin to induce the expression of PfeA. CAA is a highly iron-restricted medium with iron concentrations of 20 nM[59]. Afterwards bacteria were washed with 50 mM Tris-HCl pH 8.0, and diluted to an OD600 of 1. Cells solutions were divided in two, one batch being treated with 200 μM CCCP. […] After 30 min of incubations, cells were centrifuged, and the radioactivity associated to the bacteria was monitored in the cell pellets. For the cells treated with CCCP, the radioactivity in the cell pellets corresponds to the binding of ^55Fe-enterobactin to P. aeruginosa cell surface, since no uptake occurs. In the absence of CCCP, the radioactivity associated to the cells corresponds to ^55Fe-enterobactin binding to the cell surface and the uptake into the bacteria.

[1] = target: T3, PfeA R480A-Q482A double mutant (Pseudomonas aeruginosa, UniProt Q05098, Q507A/R505A); assay: coelution on S200 size-exclusion column, PfeA R480A-Q482A; format: binding
T3 construct: His7 tag with TEV protease site (N, cleaved yes); made in house; host or cells: E. coli C43 (DE3)
T3 sequence (Q05098 26-746 R505A/Q507A): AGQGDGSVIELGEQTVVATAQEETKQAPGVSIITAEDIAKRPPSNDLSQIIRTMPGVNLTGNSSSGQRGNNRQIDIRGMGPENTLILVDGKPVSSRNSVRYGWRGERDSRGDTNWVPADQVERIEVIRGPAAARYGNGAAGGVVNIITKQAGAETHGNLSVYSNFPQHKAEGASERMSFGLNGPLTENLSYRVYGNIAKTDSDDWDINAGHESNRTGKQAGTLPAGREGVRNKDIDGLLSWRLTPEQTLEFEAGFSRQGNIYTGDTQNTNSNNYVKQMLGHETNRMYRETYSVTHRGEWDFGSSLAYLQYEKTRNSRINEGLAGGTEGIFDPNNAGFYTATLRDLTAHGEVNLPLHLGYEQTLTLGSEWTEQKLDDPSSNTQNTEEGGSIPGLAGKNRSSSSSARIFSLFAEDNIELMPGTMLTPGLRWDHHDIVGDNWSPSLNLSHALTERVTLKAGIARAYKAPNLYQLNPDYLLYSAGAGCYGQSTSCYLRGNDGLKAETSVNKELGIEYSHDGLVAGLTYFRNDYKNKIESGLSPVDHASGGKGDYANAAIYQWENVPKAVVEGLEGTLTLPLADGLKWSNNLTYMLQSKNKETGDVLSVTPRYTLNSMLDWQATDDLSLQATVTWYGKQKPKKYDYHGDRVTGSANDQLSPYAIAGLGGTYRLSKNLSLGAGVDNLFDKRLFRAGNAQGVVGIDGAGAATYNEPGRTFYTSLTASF
Protocol: Proteins were incubated with the Fe^3+-siderophore before being loaded on a S200 size-exclusion column.

## O=C(N[C@H]1COC(=O)[C@@H](NC(=O)c2cccc([O-])c2[O-])COC(=O)[C@@H](NC(=O)c2cccc([O-])c2[O-])COC1=O)c1cccc([O-])c1[O-].[Fe+3] [Fe^3+-enterobactin]
PfeA G324V mutant
  binding by ITC: no binding was detected; also recorded: did not show any detectable binding
PfeA Q482A mutant
  binding by ITC: biphasic isotherms, but with much reduced heat output and smaller K1 values; also recorded: weakened (but detectable) binding
wild-type PAO1 strain; PAO1 + CCCP
  55Fe count, Comptage: 1670 dpm and 1638 dpm and 1498 dpm
  55Fe-enterobactin bound/taken up: 21.426 pmol/ml/DO600 and 21.0154 pmol/ml/DO600 and 19.2192 pmol/ml/DO600
wild-type PAO1 strain; PAO1, no CCCP
  55Fe count, Comptage: 14331 dpm and 14149 dpm and 16177 dpm
  55Fe-enterobactin bound/taken up: 183.866 pmol/ml/DO600 and 181.531 pmol/ml/DO600 and 207.55 pmol/ml/DO600
[1]
  coelution with protein on size-exclusion column: does not coelute
